# The SangsterLogP compilation
row,SMILES,logP
1,C=C(Cl)COCC(Cn1cncn1)c1ccc(Cl)cc1Cl (stereo not drawn),3.7
2,Clc1ccc(C(COCC=Cc2ccccc2)Cn2cncn2)c(Cl)c1 (stereo not drawn),4.21
3,C=CCOCC(Cn1cncn1)c1ccc(Cl)cc1Cl (stereo not drawn),3.49
4,Clc1ccc(C(COCCCc2ccccc2)Cn2cncn2)c(Cl)c1 (stereo not drawn),4.77
5,CC(C)=CCOCC(Cn1cncn1)c1ccc(Cl)cc1Cl (stereo not drawn),3.91
6,Clc1ccc(C(COCc2cccc(Oc3ccccc3)c2)Cn2cncn2)c(Cl)c1 (stereo not drawn),4.58
7,COc1cccc(COCC(Cn2cncn2)c2ccc(Cl)cc2Cl)c1 (stereo not drawn),3.85
8,C#CCOCC(Cn1cncn1)c1ccc(Cl)cc1Cl (stereo not drawn),2.93
9,N#CCCOCC(Cn1cncn1)c1ccc(Cl)cc1Cl (stereo not drawn),0.36
10,Clc1ccc(C(COCc2ccc(OCc3ccccc3)cc2)Cn2cncn2)c(Cl)c1 (stereo not drawn),4.46
11,Clc1ccc(C(COCc2ccc(-c3ccccc3)cc2)Cn2cncn2)c(Cl)c1 (stereo not drawn),4.29
12,Clc1ccc(COCC(Cn2cncn2)c2ccc(Cl)cc2Cl)c(Cl)c1 (stereo not drawn),4.71

# Results, then the compound that gave them:
row,logP,SMILES
1,4.48,Clc1ccc(C(COCc2ccc3ccccc3c2)Cn2cncn2)c(Cl)c1 (stereo not drawn)
2,4.42,Clc1ccc(C(COCc2cccs2)Cn2cncn2)c(Cl)c1 (stereo not drawn)
3,3.72,C=C(C)COCC(Cn1cncn1)c1ccc(Cl)cc1Cl (stereo not drawn)
4,3.83,Clc1ccc(C(COCc2ccccc2)Cn2cncn2)c(Cl)c1 (stereo not drawn)
5,3.72,O=[N+]([O-])c1ccc(COCC(Cn2cncn2)c2ccc(Cl)cc2Cl)cc1 (stereo not drawn)
6,4.84,CC(C)(C)c1ccc(COCC(Cn2cncn2)c2ccc(Cl)cc2Cl)cc1 (stereo not drawn)
